{"source": "patent US8334266B2", "about": "“Process for and intermediates in the preparation of canfosfamide and its salts” (Telik, Inc., priority 2004, dated 2012)", "key": {"[1]": {"system": "HL-60 (promyeloid myelocytic leukemia)", "description": "(§1) The human cancer cell lines HL-60 (promyeloid myelocytic leukemia) and MX-1 (breast carcinoma) were obtained from the National Cancer Institute, Bethesda, Md., U.S.A. The CellTiter-Glo assay kit was obtained from Promega Corporation, Madison, Wis., U.S.A, and was used in accordance with the manufacturer's directions. All assays were conducted in triplicate wells, with dimethyl sulfoxide (DMSO) solvent control. The extent of cell growth was expressed as a percentage of the signal from the solvent control wells.\n(§2) Log-phase cells were trypsinized, collected by centrifugation, and resuspended in a small volume of fresh medium, and the density of viable cells was determined following Trypan Blue staining. Cells were diluted in fresh media (5×10^3 cells/mL for HL-60 and 3×10^3 cells/mL for MX-1 cells), Compound 4A (concentrations between 0.1 and 200 μM, dissolved in DMSO, 50 μL) added immediately after dilution to achieve a final DMSO concentration of 0.5%, then the suspensions added at 150 μL/well to 96-well plates, and incubated for several hours to allow attachment in the case of adherent cells. The cells were cultured for approximately three doubling times (3 days). The cells were then collected by centrifugation, and 100 μL of the culture supernatant was replaced by the CellTiter-Glo reagent. After incubation for 15 minutes at room temperature, and the plate was read with a luminometer."}, "MX-1 (breast carcinoma)": {"system": "MX-1 (breast carcinoma)", "conditions": "MX-1, cultured 3 days, CellTiter-Glo", "description": "as §1, §2"}, "[2]": {"system": "M7609 engineered to have high, medium, and low levels of GST P1-1", "conditions": "murine xenografts; cited from earlier work"}, "[3]": {"system": "in vitro cell culture and tumor biopsies", "conditions": "cited from earlier work"}, "[4]": {"system": "MCF-7 human breast carcinoma cell line selected for resistance to cyclophosphamide", "conditions": "resistant line overexpresses GST P1-1; cited from earlier work"}, "[5]": {"system": "M6709 human colon carcinoma cell line selected for resistance to doxorubicin", "conditions": "resistant line overexpresses GST P1-1; cited from earlier work"}, "[6]": {"system": "ovarian, breast, non-small cell lung, and colorectal cancers", "conditions": "cited from earlier work"}}, "note": "Where a name gives a salt, the structure may show the parent alone.", "data": [{"smiles": "O=C(CC[C@H](NC(=O)OCc1ccccc1)C(=O)O)N[C@@H](CS(=O)(=O)CCOP(=O)(N(CCCl)CCCl)N(CCCl)CCCl)C(=O)N[C@@H](C(=O)O)c1ccccc1", "note": "[Compound 4A, N-α-(benzyloxycarbonyl)-L-γ-glutamyl-3-[[2-[[bis[bis(2-chloroethyl)amino]phosphinyl]oxy]-ethyl]sulfonyl]-L-alanyl-2-phenyl-(2R)-glycine]", "values": [{"measurement": "IC50", "setting": "[1]; HL-60, cultured 3 days, CellTiter-Glo", "result": 2200, "unit": "nM"}, {"measurement": "potency compared with canfosfamide", "setting": "[1]; in this assay (HL-60 and MX-1 cell lines)", "result": "approximately as potent as canfosfamide"}, {"measurement": "IC50", "setting": "MX-1 (breast carcinoma)", "result": 34.6, "unit": "µM"}]}, {"smiles": "N[C@@H](CCC(=O)N[C@@H](CS(=O)(=O)CCOP(=O)(N(CCCl)CCCl)N(CCCl)CCCl)C(=O)N[C@@H](C(=O)O)c1ccccc1)C(=O)O", "note": "[canfosfamide, L-γ-glutamyl-3-[[2-[[bis[bis(2-chloroethyl)amino]phosphinyl]oxy]ethyl]sulfonyl]-L-alanyl-2-phenyl-(2R)-glycine]", "values": [{"measurement": "potency in relation to GST P1-1 level", "setting": "[2]", "result": "positively correlated with the level of GST P1-1"}, {"measurement": "cross-resistance to platinum, paclitaxel, doxorubicin and gemcitabine", "setting": "[3]", "result": "non-cross-resistant"}, {"measurement": "potency relative to parental cell line", "setting": "[4]", "result": "more potent"}, {"measurement": "potency relative to parental cell line", "setting": "[5]", "result": "more potent"}]}, {"smiles": "N[C@@H](CCC(=O)N[C@@H](CS(=O)(=O)CCOP(=O)(N(CCCl)CCCl)N(CCCl)CCCl)C(=O)N[C@@H](C(=O)O)c1ccccc1)C(=O)O", "note": "[Canfosfamide hydrochloride]", "values": [{"measurement": "hematological toxicity", "setting": "[6]; patients treated", "result": "very low incidence of clinically significant hematological toxicity"}, {"measurement": "antitumor activity", "setting": "[6]; single agent, colorectal and breast cancer", "result": "single agent antitumor activity"}, {"measurement": "antitumor activity and survival", "setting": "[6]; single agent, patients with non-small cell lung cancer and ovarian cancer", "result": "significant single agent antitumor activity and improvement in survival"}]}]}
